We go through two molecules from US12241902B2, “Probes for detection of copper” (The Regents of the University of California, priority 2019, dated 2025).

The nature of series [1]: UV-vis absorption and emission measurements in aqueous buffer. The series is classed as physicochemical. How it is done:
UV-vis absorption and emission measurements. FCP-1 stock solution in DMSO (5 mM) was prepared, aliquoted and stored at […]. For each spectroscopic measurement, a fresh aliquot was diluted to 500 μM by DMSO and further diluted with PBS containing 2 mM GSH/PEG-400 mixture (3:2, v/v) to prepare the sensing solution with 5 μM of FCP-1. The sensing solution was pre-incubated in a water bath at 37° C., and then [Cu(CH3CN)](PF6) in MeCN or other metal ions in H2O was added. The solution mixture was kept at 37° C. and taken out for UV-vis absorption or emission spectroscopic measurements in quartz cuvette at predetermined time intervals. Emission spectra were corrected using coumarin 153 as secondary emission standard (4). Photoluminescence quantum yield (PLQY) was determined using fluorescein in 0.1 M NaOH solution (0.95; λex=496 nm). FRET efficiency from the fluorescein moiety to rhodamine moiety of FCP-1 was estimated by [1−(PLQY of FCP-1/PLQY of FL-TPA)].
FCP-1 in PBS buffer containing glutathione (2 mM) and PEG-400 (40%, v/v) was evaluated. […] The first two absorption maxima corresponded to the absorption of the fluorescein moiety, as similar absorption maxima at 460 and 489 nm were found in the absorption spectra of FL-TPA (FIG. 4), whereas the lowest energy absorption at 552 nm originated from the rhodamine moiety (FIG. 4). […] Together with the significant contribution of the lower-energy fluorescence from the excitation at 450-500 nm, which is in the region of FL-TPA absorption (FIG. 6), the data support the occurrence of FRET from the fluorescein donor to the rhodamine acceptor. Using FL-TPA as a reference FRET donor compound (FIG. 7) with assumption that quenching of donor fluorescence originated only from the FRET process, the FRET efficiency in the FCP-1 cassette is estimated to be 84%.

The subject of series [2] is labile Cu(I) pools in HEK 293T cells. In words: Ratiometric confocal fluorescence imaging of labile Cu(I) in HEK 293T cells. The series is classed as cell-based, Human. The note with it: CuCl2 25 μM, FL-TPA 5 μM, λex 488 nm (FIG. 15). How it is done: (A) Confocal fluorescence microscopy images of HEK 293T cells pretreated with solvent vehicle control or varying concentrations of CuCl2 in complete medium for 18 h. The cells were then washed with PBS, incubated with FCP-1 (5 μM) in DPBS for 45 min and then imaged. (B) Average cellular ratiometric emission ratios, represented by Fgreen/Forange, as determined from imaging experiments in (A) performed in triplicate. (C) Confocal fluorescence microscopy images of HEK 293T cells pretreated with solvent vehicle control or BCS (100 μM) in complete medium for 18 h. The cells were then washed with PBS, incubated with FCP-1 (5 μM) in DPBS for 45 min and then imaged. (D) Average cellular ratiometric emission ratios of FCP-1, Fgreen/Forange, as determined from experiments in (C) performed in triplicate. […] (E) ICP-MS measurement to determine total cellular ^63Cu levels in HEK293T cells under copper supplementation and depletion relative to the control (with normalization of different cell numbers by total cellular ^31P level). Error bars denote standard derivation (SD; n=3). *p<0.05, **p<0.01, ***p<0.001, ****p<0.0001 and *****p<0.00001.
Cell culture. Following cell cultures were grown: Human embryonic kidney (HEK 293T) cells were maintained in Dulbecco's Modified Eagle Medium (DMEM) supplemented with 10 vol % fetal bovine serum (FBS), 1 vol % GlutaMax (Gibco) and 1 vol % non-essential amino acids (NEAA, Gibco). Ctrl1^+/+ and Ctr1^−/− MEF cells were maintained in DMEM with 10 vol % FBS, 1 vol % non-essential amino acids, 1 vol % sodium pyruvate and 0.1 vol % 2-mercaptoethanol or DMEM supplemented with 10 vol % FBS and 1× Penicillin-Streptomycin. Human cervical epithelial carcinoma (HeLa) was maintained in DMEM medium supplemented with 1 vol % GlutaMAX and 10 vol % FBS. […]
Confocal fluorescence microscopy imaging. For confocal fluorescence imaging experiments of HEK293T, MEF Ctr1^+/+ and Ctr1^−/− and HeLa cells, the cells were plated on 8-well Lab Tek borosilicate chambered coverglass slides (Nunc), and allowed to grow to ca. 60% confluency before performing the cell imaging experiments. […] For quantification, a threshold value was set as background and the average intensity of the whole image was measured by ImageJ. […]
Given the metal and oxidation state-selective and sensitive response of FCP-1 to Cu(I), this probe was examined for ratiometric fluorescence imaging of labile Cu(I) pools in living cells. […] The observed increases and decreases in labile Cu(I) levels upon copper supplementation (CuCl2) and copper depletion (BCS) treatments, respectively, as measured by FCP-1 imaging were supported by complementary ICP-MS measurements of total copper levels showing expected increases and decreases in the total copper pool (FIG. 9, panel C).

Series [3] concerns labile Cu(I) in Ctr1^+/+ MEFs. In words: Confocal fluorescence imaging of labile Cu(I) in Ctr1+/+ MEFs. The note with it: FL-TPA 5 μM, 45 min, λex 488 nm. The series is classed as cell-based, mouse. How it is done:
(A) Confocal fluorescence microscopy images of Ctr1^+/+ MEFs and Ctr1^−/− MEFs treated with solvent control, CuCl2 (100 or 300 μM) or BCS (500 μM) in complete medium for 8 h, washed with complete medium and PBS, incubated with FCP-1 (5 μM) in DPBS for 45 min, and then imaged with λex=458 nm. (B) Average cellular ratiometric emission ratios of FCP-1, Fgreen/Forange, as determined from experiments performed in triplicate. (C) Total cellular ^63Cu levels were determined by ICP-MS experiments (with normalization of different cell numbers by total cellular ^31P level). (D) Confocal fluorescence microscopy images of Ctr1^+/+ MEFs and Ctr1^−/− MEFs incubated with FL-TPA (5 μM) in DPBS for 45 min. The cells were then imaged with λex=488 nm. (E) Average cellular fluorescence intensity of FL-TPA, FFL-TPA, determined from experiments performed in triplicate with λex=488 nm. Error bars denote SD (n=3). *p<0.05, **p<0.01 and ***p<0.001.
Cell culture. Following cell cultures were grown: Human embryonic kidney (HEK 293T) cells were maintained in Dulbecco's Modified Eagle Medium (DMEM) supplemented with 10 vol % fetal bovine serum (FBS), 1 vol % GlutaMax (Gibco) and 1 vol % non-essential amino acids (NEAA, Gibco). Ctrl1^+/+ and Ctr1^−/− MEF cells were maintained in DMEM with 10 vol % FBS, 1 vol % non-essential amino acids, 1 vol % sodium pyruvate and 0.1 vol % 2-mercaptoethanol or DMEM supplemented with 10 vol % FBS and 1× Penicillin-Streptomycin. Human cervical epithelial carcinoma (HeLa) was maintained in DMEM medium supplemented with 1 vol % GlutaMAX and 10 vol % FBS. All cells were incubated in 5% CO2 humidified air and subcultured at 80% confluence.
Confocal fluorescence microscopy imaging. For confocal fluorescence imaging experiments of HEK293T, MEF Ctr1^+/+ and Ctr1^−/− and HeLa cells, the cells were plated on 8-well Lab Tek borosilicate chambered coverglass slides (Nunc), and allowed to grow to ca. 60% confluency before performing the cell imaging experiments. The confocal imaging was performed with a Zeiss laser scanning microscope 710 with 20× or 63× oil-immersion objective lens using Zen 2009 software (Carl Zeiss). FCP-1 was excited with 458 nm with an Ar laser, and the emissions were collected using a META detector between 465 and 541 nm (Fgreen), and between 559 and 710 nm (Forange). DRAQ-5 was excited with a 633 nm He Ne laser, and its emission was collected using a META detector between 661 and 759 nm. Image analysis was performed using ImageJ, with ratiometric images generated by the Ratio Plus plugin of ImageJ. For quantification, a threshold value was set as background and the average intensity of the whole image was measured by ImageJ. All experiments were performed in triplicate, and statistical analyses were performed with a two-tailed Student's t-test (MS excel).
Having established that FCP-1 is sensitive to endogenous pools of labile Cu(I) under basal conditions and can respond to changes in labile Cu(I) pools upon pharmacological copper supplementation and/or depletion, the application of FCP-1 to visualize alterations in endogenous labile Cu(I) pools through genetic manipulation was explored. To this end, comparative FCP-1 imaging was performed in mouse embryonic fibroblast cells that are either Cu-replete (Ctr1^+/+ MEFs) or Cu-deficient (Ctr1^−/− MEFs) through knockout of the high-affinity copper transporter CTR1 (64-66).
Complementary ICP-MS measurements confirm that total copper levels in Ctr1^−/− MEFs are lower than Ctr1^+/+ MEFs (FIG. 12C). […]

“And” between values parts separate entries of the source, which are not always exact repeats. Identical values can stand only once.

As for `COC(=O)c1ccccc1-c1c2ccc(=O)cc-2oc2cc(OCc3cccc(CN(Cc4ccccn4)Cc4ccccn4)n3)ccc12` [FL-TPA], the absorption maxima in series [1] (PBS buffer containing glutathione (2 mM) and PEG-400 (40%, v/v)) was 460 nm and 489 nm. The “detection of changes in labile copper with exogenous copper addition” value in series [2] is on record as “able to detect changes in labile copper”. Besides, in series [3], the “ability to distinguish basal labile Cu(I) levels in Ctr1+/+ and Ctr1−/− MEFs” value is “unable to distinguish differences”.
For “N-[9-(2-carboxyphenyl)-6-(1-piperazinyl)-3H-xanthen-3-ylidene]-N-ethyl-ethanaminium [Pz-rhodamine, reference compound]”, the “absorption at 458 nm” value in series [1] (5 μM in PBS, 2 mM GSH, 40 vol % PEG-400) is listed as “weak absorption”.
